Experimental data from patent publication US11485701B2, “Insect repellent compounds and compositions, and methods thereof” (Iowa State University Research Foundation, Inc., priority 2016, dated 2022).

Each compound was assayed on female Aedes aegypti (Orlando strain, 1952) (assay: Minimum effective dosage testing, human skin (treated cloth patch)). Conditions: average MED relative to DEET.
Assay type: in vivo
Method: The test mosquitoes were female Aedes aegypti (Orlando strain, 1952) from the colony maintained at United States Department of Agriculture-Agricultural Research Service-Center for Medical, Agricultural and Veterinary Entomology (USDA-ARS-CMAVE) in Gainesville, Fla. Pupae were obtained from the colony and newly emerged mosquitoes were maintained on 10% sugar water and kept in laboratory cages at an ambient temperature of 28±1° C. and RH of 35-60%. Host seeking behavior was pre-selected in nulliparous female mosquitoes aged 6-10 days, indicated by flight upwind towards a potential host, from stock cages using a hand-draw box and trapped in a collection trap.
After 500 (±10%) females were collected in the trap, they were transferred to a test cage (approximately 59,000 cm^3 with dimensions 45×37.5×35 cm) and allowed to acclimatize for 17.5 (±2.5) min before testing was initiated. Just prior to the experiment, the pieces of treated cloth are removed from the vials and stapled onto card stock tabs (5×3 cm). Each piece of the cards and the assembly were hung on a drying rack using masking tape for 3-5 min. Participants in the study used latex gloves to pull a nylon stocking over their arm. A Velcro™-sealed vinyl sleeve was then placed over the forearm. […] The purpose of the nylon stocking was to produce a barrier between the dried cloth and the skin, thereby avoiding direct contact of chemical to skin. The dried cloth assembly was affixed over the opening in the sleeve and held in place with masking tape. Participants then inserted their arm with the sleeve and patch into a screened cage that contained female Ae. Aegypti mosquitoes. Tests were conducted on each control or treated patch for 1 min. A control patch (acetone solvent only, then dried) was tested prior to the start of experiments and evaluation of the same untreated control patch after every 10 tests. If 5 landings were not received on the control patch in 30 s, then tests were discontinued for 60 min. At the conclusion of testing the control patch was tested again. If five landings were not received within 30 s, the data for the replicate was discarded. When testing a patch treated with a candidate repellent, if approximately 1% or 5 mosquito bites were received during this one minute test, this compound was considered to have failed, i.e., was not repellent at that concentration. If a treated cloth patch received 0-4 bites within a minute, then it was considered as passed, i.e., repellent at that concentration of the test compound. The median concentration patch was tested in the first round and treated patches were then tested successively at higher or lower concentrations depending upon whether the previous patch failed or passed, respectively.
The time interval between each tested patch was <90 seconds until 10 successive tests had been conducted. If appreciable, mortality had occurred during testing, the number of knocked down mosquitoes are estimated and additional female mosquitoes are added to the cage to keep the available mosquitoes at approximately 500. The estimate of the MED was the lowest concentration that passed for each candidate. Observed MED values for each candidate compound were averaged across participants and reported as a mean MED±standard error.

In order of rising “Proportion to DEET” value:
1. CCN(CC)C(=O)c1cccc(C)c1 [DEET, N,N-diethyl-meta-toluaminde, reference compound]  1.000
2. CC(C)=CCC/C(C)=C/C(=O)OCC(C)O (centres unmarked) [2-hydroxypropyl geranate]  2.474
3. CC(C)=CCCC(C)CC(=O)OCCCO (centres unmarked) [3-hydroxypropyl citronellate]  3.702
4. CC(C)=CCC/C(C)=C/C(=O)OCCCO [3-hydroxypropyl geranate]  6.579
5. CC(C)=CCC/C(C)=C/C(=O)OCCO [2-hydroxyethyl geranate]  13.140
6. CC(O)COC(=O)C=Cc1ccccc1 (centres unmarked) [2-hydroxypropyl cinnamate]  19.737
7. O=C(C=Cc1ccccc1)OCCCO [3-hydroxypropyl cinnamate]  52.632

Same assay, conditions: mean across subjects

In order of falling “Minimum Effective Dosage, Average” value:
1. O=C(C=Cc1ccccc1)OCCCO [3-hydroxypropyl cinnamate]  1.000 mg/cm^2
2. CC(O)COC(=O)C=Cc1ccccc1 (centres unmarked) [2-hydroxypropyl cinnamate]  0.375 mg/cm^2
3. CC(C)=CCC/C(C)=C/C(=O)OCCO [2-hydroxyethyl geranate]  0.250 mg/cm^2
4. CC(C)=CCC/C(C)=C/C(=O)OCCCO [3-hydroxypropyl geranate]  0.125 mg/cm^2
5. CC(C)=CCCC(C)CC(=O)OCCCO (centres unmarked) [3-hydroxypropyl citronellate]  0.070 mg/cm^2
6. CC(C)=CCC/C(C)=C/C(=O)OCC(C)O (centres unmarked) [2-hydroxypropyl geranate]  0.047 mg/cm^2
7. CCN(CC)C(=O)c1cccc(C)c1 [DEET, N,N-diethyl-meta-toluaminde, reference compound]  0.019 mg/cm^2

Same assay, conditions: treated cloth patch, 1 min test, high dose 1.5 mg/cm^2

In order of rising “Minimum Effective Dosage, Subject 1” value:
1. CCN(CC)C(=O)c1cccc(C)c1 [DEET, N,N-diethyl-meta-toluaminde, reference compound]  0.023 mg/cm^2
2. CC(C)=CCC/C(C)=C/C(=O)OCC(C)O (centres unmarked) [2-hydroxypropyl geranate]  0.047 mg/cm^2
3. CC(C)=CCCC(C)CC(=O)OCCCO (centres unmarked) [3-hydroxypropyl citronellate]  0.094 mg/cm^2
4. CC(C)=CCC/C(C)=C/C(=O)OCCO [2-hydroxyethyl geranate]  0.187 mg/cm^2
5. CC(C)=CCC/C(C)=C/C(=O)OCCCO [3-hydroxypropyl geranate]  0.187 mg/cm^2
6. O=C(C=Cc1ccccc1)OCCCO [3-hydroxypropyl cinnamate]  0.750 mg/cm^2

In order of falling “Minimum Effective Dosage, Subject 2” value:
1. O=C(C=Cc1ccccc1)OCCCO [3-hydroxypropyl cinnamate]  1.500 mg/cm^2
2. CC(O)COC(=O)C=Cc1ccccc1 (centres unmarked) [2-hydroxypropyl cinnamate]  0.375 mg/cm^2
3. CC(C)=CCC/C(C)=C/C(=O)OCCO [2-hydroxyethyl geranate]  0.375 mg/cm^2
4. CC(C)=CCCC(C)CC(=O)OCCCO (centres unmarked) [3-hydroxypropyl citronellate]  0.094 mg/cm^2
5. CC(C)=CCC/C(C)=C/C(=O)OCCCO [3-hydroxypropyl geranate]  0.094 mg/cm^2
6. CC(C)=CCC/C(C)=C/C(=O)OCC(C)O (centres unmarked) [2-hydroxypropyl geranate]  0.047 mg/cm^2
7. CCN(CC)C(=O)c1cccc(C)c1 [DEET, N,N-diethyl-meta-toluaminde, reference compound]  0.023 mg/cm^2

In order of falling “Minimum Effective Dosage, Subject 3” value:
1. O=C(C=Cc1ccccc1)OCCCO [3-hydroxypropyl cinnamate]  0.750 mg/cm^2
2. CC(O)COC(=O)C=Cc1ccccc1 (centres unmarked) [2-hydroxypropyl cinnamate]  0.375 mg/cm^2
3. CC(C)=CCC/C(C)=C/C(=O)OCCO [2-hydroxyethyl geranate]  0.187 mg/cm^2
4. CC(C)=CCC/C(C)=C/C(=O)OCCCO [3-hydroxypropyl geranate]  0.094 mg/cm^2
5. CC(C)=CCC/C(C)=C/C(=O)OCC(C)O (centres unmarked) [2-hydroxypropyl geranate]  0.047 mg/cm^2
6. CC(C)=CCCC(C)CC(=O)OCCCO (centres unmarked) [3-hydroxypropyl citronellate]  0.023 mg/cm^2
7. CCN(CC)C(=O)c1cccc(C)c1 [DEET, N,N-diethyl-meta-toluaminde, reference compound]  0.011 mg/cm^2

What follows are compounds tested on Northern house mosquitoes (Culex pipiens) (assay: Long-term spatial repellency, static air repellency chamber, filter papers air-dried 5 hours). Conditions: 0.5% solution, air-dried 5 hours; 30 minutes.
Assay type: in vivo
Method: (§1) Northern house mosquitoes (Culex pipiens), a primary carrier of West Nile virus in eastern North America, were obtained from an established colony in the Medical Entomology Laboratory in the Department of Entomology at Iowa State University of Science and Technology, Ames Iowa. Mosquito rearing was performed by established protocols that are maintained by the Medical Entomology Laboratory. Repellency bioassays were performed with adult female mosquitoes that were 5-7 days post-emergent. […] Mosquitoes, prior to testing, were held at 27° C., 80% relative humidity, and on a 16:8 hr light:dark photoperiod.
(§2) Repellency bioassays were performed using a static air repellency chamber, which has been described in various publications by the Pesticide Toxicology Laboratory at Iowa State University of Science and Technology, Ames, Iowa Briefly, a 9-cm×60-cm glass tube was used to monitor the distribution of mosquitoes at 15 min, 30 min, 60 min, 90 min, 120 min, and 150 min after introducing mosquitoes into the static air repellency chamber. Treated filter papers were treated with 1 mL of 0.5% solution in acetone of the terpenoid analogs created in the lab and were exposed to ambient air for 5 hours before they were introduced into the spatial chamber for testing. This is a slight modification of the method described in Example 2, so as to evaluate the residual repellent character of these compounds on a treated surface after 5 hours. One end of the spatial chamber contained a treated filter paper, whereas the other (untreated) end of the spatial chamber was not treated with compound. Controls contained filter papers treated with acetone, the solvent used to make the 0.5% solutions. Each end of the repellency chamber was secured with a 100-mm Petri dish using celluloid tape. After securing the petri dishes with corresponding treated or untreated filter papers to the spatial chamber, mosquitoes were anesthetized with carbon dioxide, and approximately 20 female mosquitoes were placed into each repellency chamber for one replicate. The opening of the spatial repellency chamber was secured with celluloid tape to prevent their escape. Chambers were oriented in opposite directions from the previous replicate to account for any directional effect. Four replicates were performed for data analysis for both the control and treatment groups.
Data for spatial repellency, the percentage repellency, is reported at each of the respective time points in the figures and tables mentioned below in this disclosure. The percentage spatial repellency is the examination of the distribution of mosquitoes and is calculated using the following equation: […]

In the case of `CCN(CC)C(=O)c1cccc(C)c1` [DEET, N,N-diethyl-meta-toluaminde, reference compound], the “Long-term percentage repellency 30 min” value is reported as 22.5%.

Same assay, conditions: 1 mL of 0.5% solution in acetone, air-dried 5 hours; 15 min

With `CCN(CC)C(=O)c1cccc(C)c1` [DEET, N,N-diethyl-meta-toluaminde, reference compound] the “Long-term Percentage repellency 15 min” value was 32.5%±14.4.

Each compound was assayed on Northern house mosquitoes (Culex pipiens) (assay: Short-term spatial repellency, static air repellency chamber). Conditions: 1 mL of 0.5% solution in acetone; 30 minutes.
Assay type: in vivo
Method: as §1, with “that emerged” for “that were”, “days previously.” for “days post-emergent.”
as §2, with “Treated filter papers were treated with 1 mL of 0.5% solution in acetone of the terpenoid analogs created in the lab and were exposed to ambient air for 5 hours before they were introduced into the spatial chamber for testing. This is a slight modification of the method described in Example 2, so as to evaluate the residual repellent character of these compounds on a treated surface after 5 hours.” left out
Data for spatial repellency, the percentage repellency, is reported at each of the respective time points in the figures and tables mentioned below. The percentage spatial repellency is the examination of the distribution of mosquitoes and is calculated using the following equation: […]

For `CCN(CC)C(=O)c1cccc(C)c1` [DEET, N,N-diethyl-meta-toluaminde, reference compound], the “Short-term percentage repellency 30 min” value was 53.3%.

Same assay, conditions: filter paper, 1 mL of 0.5% solution in acetone, air-dried 15 min; 15 min after introduction

In the case of `CCN(CC)C(=O)c1cccc(C)c1` [DEET, N,N-diethyl-meta-toluaminde, reference compound], the “Short-term Percentage repellency 15 min” value is reported as 20%±15.3.
